# Test results taken from US20150328116A1, “Oral Care Composition Containing Ionic Liquids” (COLGATE-PALMOLIVE COMPANY, priority 2012, published 2015).
# “Also recorded” adds a separate entry of the source. Where two headings read alike, the source gives them in different places.
# Columns and labels:
# [1] = system: 3-day old biofilm of artificial mouth consortium of bacteria (A. naeslundii, S. oralis, V. parvula, L. casei, F. nucleatum) and S. mutans; test: In vitro removal of a 3-day old biofilm (optical density reduction); format: cell-based; conditions: for Percent Biofilm Removal (BMIM Cationic Series): […] BMIM-based ionic liquids in base prototype mouth rinse of Table 1
# [2] = In-vitro removal of tooth stains / teeth whitening (L*a*b*); set-up: species or system human; conditions: 1M in prototype whitening mouthwash base (Table 7); teeth soaked one hour
# [3] = system: A. viscosus; test: Minimum inhibitory concentration; format: cell-based; conditions: Actinomyces viscosus; 24 hours incubation, optical density at 610 nm
# [4] = system: A. viscosus; test: Growth inhibition of A. viscosus (optical density over time); format: cell-based
# Method: DMIM chloride was incorporated into a prototype mouth rinse as illustrated in Table 9. […] The growth inhibition was measured as a change in optical density over time.
# [5] = system: A. viscosus; test: Short Interval Kill Test (SIKT); format: cell-based; conditions: 0.3, 0.6 and 1 wt % in prototype mouth rinse of Table 9
# Text: SIKT determines the kill effect of a test article at a predetermined exposure time. […] The reaction was neutralized after 30 seconds by adding a neutralizing broth. The reaction mixture was further diluted and plated on MCA (Microbial Count Agar) plates for viable bacterial count.
# [6] = system: Dental plaque samples; test: Dissolution of plaque (visual pellet after centrifugation); conditions: water-insoluble plaque, ionic liquid added, vortex mixed at room temperature, centrifuged at 13,000 g
# [7] = […] ionic liquid in base prototype mouth rinse of Table 1, 15 minutes, relative to water
# [8] = direct comparison between EMIM and BMIM with different anions
compound,measurement,setting,value
1-butyl-3-methylimidazolium octyl sulfate [BMIM Octyl SO4],Percent Biofilm Removal (BMIM Cationic Series),[1],58.6%
same,Percent Removal of a 3-day Oral Biofilm,[1]; [7],58.6%
1-ethyl-3-methylimidazolium ethyl sulfate [EMIM Ethyl SO4],Percent Removal of a 3-day Oral Biofilm,[1],48.1%
same,ΔE,[2],4.41
same,ΔL,[2],3.40
same,ΔW,[2],−2.99
"1,2,3-trimethylimidazolium methyl sulfate [TMIM MeSO4]",Percent Biofilm Removed (Other Ionic Liquids),[1],51.8%
same,Percent Removal of a 3-day Oral Biofilm,[1],51.8%
tris(2-hydroxyethyl)methylammonium sulfate [MTEOA MeSO4],Percent Biofilm Removed (Other Ionic Liquids),[1],52.8%
same,Percent Removal of a 3-day Oral Biofilm,[1],52.8%
1-butyl-3-methylimidazolium methyl sulfate [BMIM MeSO4],Percent Biofilm Removal (BMIM Cationic Series),[1],53.9%
same,Percent Removal of a 3-day Oral Biofilm,[1]; [7],53.9%
"CCn1cc[n+](C)c1.[Cl-] [EMIM Cl, 1-ethyl-3-methylimidazolium chloride]",Percent Biofilm Removed (EMIM vs BMIM comparison),[1],44.3%
same,Percent Removal of a 3-day Oral Biofilm,[1],44.3%
"CCCCCCCCCCn1cc[n+](C)c1.[Cl-] [DMIM Cl, 1-decyl-3-methylimidazolium chloride]",MIC,[3],125 µg/mL
same,Percent Removal of a 3-day Oral Biofilm,[1]; [7],57.3%
same,"biofilm removal, comparison in words","[1]; comment on Tables 2 and 6, listed as DMIM chloride",significantly more effective in removing biofilm than EMIM chloride and BMIM chloride; also recorded: most effective in removing biofilm
same,Percent Biofilm Removed (Other Ionic Liquids),[1]; protocol of Example 2,57.3%
same,growth inhibition of A. viscosus,[4]; 0.312 wt % in prototype mouth rinse,Growth inhibition of A.viscosus is maintained
same,growth inhibition of A. viscosus,"[4]; 1 wt % in prototype mouth rinse (Table 9), versus mouthwash containing cetylpyridinium chloride",greater growth inhibition of A. viscosus than a mouthwash containing cetylpyridinium chloride
same,time to kill A. viscosus,[5],≤ 30 s
"C=CCn1cc[n+](C)c1.[Cl-] [AMIM Cl, 1-allyl-3-methylimidazolium chloride]",Percent Biofilm Removed (Other Ionic Liquids),[1],44.8%
same,Percent Removal of a 3-day Oral Biofilm,[1],44.8%
same,"biofilm removal, comparison in words",[1],effective in removing biofilm
"CCn1cc[n+](C)c1.[Br-] [EMIM Br, 1-ethyl-3-methylimidazolium bromide]",Percent Removal of a 3-day Oral Biofilm,[1]; [7],48.6%
same,Percent Biofilm Removed (EMIM vs BMIM comparison),[1]; [8],48.6%
same,plaque dissolution (size of the plaque pellet),[6],size of the plaque pellet is reduced
"COS(=O)(=O)[O-].Cc1cc[n+](C)n1C [MMMPz MeSO4, 1,2,3-trimethylpyrazolium (MMMPZ) methyl sulfate]",Percent Removal of a 3-day Oral Biofilm,[1]; [7],57.8%
same,Percent Biofilm Removed (Other Ionic Liquids),[1]; protocol of Example 2,57.9%
"CCCCn1cc[n+](C)c1.[Cl-] [BMIM Cl, 1-butyl-3-methylimidazolium chloride]",Percent Biofilm Removal (BMIM Cationic Series),[1],43.8%
same,Percent Removal of a 3-day Oral Biofilm,[1]; [7],43.8%
same,Percent Biofilm Removed (EMIM vs BMIM comparison),[1]; [8],43.8%
"CCn1cc[n+](C)c1.Cc1ccc(S(=O)(=O)[O-])cc1 [EMIM Tosylate, 1-ethyl-3-methylimidazolium tosylate]",Percent Removal of a 3-day Oral Biofilm,[1]; [7],59.5%
"CC(=O)[O-].CCCCn1cc[n+](C)c1 [BMIM OAc, 1-butyl-3-methylimidazolium acetate]",Percent Biofilm Removal (BMIM Cationic Series),[1],55.8%
same,Percent Removal of a 3-day Oral Biofilm,[1]; [7],55.9%
same,Percent Biofilm Removed (EMIM vs BMIM comparison),[1]; [8],55.8%
"CC(=O)[O-].CCn1cc[n+](C)c1 [EMIM OAc, 1-ethyl-3-methylimidazolium acetate]",Percent Removal of a 3-day Oral Biofilm,[1]; [7],52.1%
same,Percent Biofilm Removed (EMIM vs BMIM comparison),[1]; [8],52.1%
1-ethyl-3-methylimidazolium diethyl phosphate [EMIM diethyl PO4],Percent Removal of a 3-day Oral Biofilm,[1]; [7],52.7%
"CCCCn1cc[n+](C)c1.[Br-] [BMIM Br, 1-butyl-3-methylimidazolium bromide]",Percent Biofilm Removal (BMIM Cationic Series),[1],48.0%
same,Percent Removal of a 3-day Oral Biofilm,[1]; [7],48.0%
same,Percent Biofilm Removed (EMIM vs BMIM comparison),[1]; [8],48.0%
